Assay results published in patent US9790169B2, “IDO inhibitors” (BRISTOL-MYERS SQUIBB COMPANY, priority 2015, dated 2017).

Molecular target: human IDO1 (Homo sapiens, UniProt P14902)
Test: Assessment of human IDO-1 inhibitory activity in HEK cells (human IDO1/HEK293 cells, kynurenine read-out with Ehrlich reagent, absorbance 490 nm)
Assay type: cell-based
Design: expressed in transfected cells
Conditions: HEK Human IDO-1 cellular assay
In short: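 Kynurenine output from stably IDO1-transfected HEK293 cells (10,000/well, phenol red-free RPMI, 10% FBS) after 20 h compound exposure at 37 °C. The reaction was stopped with 0.2% TCA and heated 30 min at 50 °C, then the supernatant was mixed with Ehrlich reagent and read at 490 nm. IC50 was set against DMSO and a 500 nM reference standard as 0 and 100% inhibition.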

human IDO1, sequence (P14902 whole entry): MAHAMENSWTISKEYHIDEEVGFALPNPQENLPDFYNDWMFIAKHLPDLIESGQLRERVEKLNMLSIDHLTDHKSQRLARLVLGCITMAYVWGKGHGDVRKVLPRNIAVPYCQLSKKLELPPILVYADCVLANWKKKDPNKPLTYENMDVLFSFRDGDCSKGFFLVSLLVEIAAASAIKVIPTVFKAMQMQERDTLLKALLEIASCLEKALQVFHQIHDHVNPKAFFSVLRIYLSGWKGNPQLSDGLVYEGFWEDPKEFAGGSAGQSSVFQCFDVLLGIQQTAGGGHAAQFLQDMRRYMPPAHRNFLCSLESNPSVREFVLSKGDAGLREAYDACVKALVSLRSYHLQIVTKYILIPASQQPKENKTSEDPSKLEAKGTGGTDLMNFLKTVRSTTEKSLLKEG

SMILES | IC50 [nM]
CC(CC(=O)O)c1ccc(N(CC(C)(C)O)C2CCOCC2)c(Nc2ccc(C#N)cc2)c1 (single isomer, unassigned) [Example 194, 3-(3-((4-cyanophenyl)amino)-4-((2-hydroxy-2-methylpropyl)(tetrahydro-2H-pyran-4-yl)amino)phenyl)butanoic acid] | < 50
CCC(CC(=O)O)c1ccc(N(CC2CC2)C2CCOCC2)c(NC(=O)Nc2cc(C)on2)c1 (single isomer, unassigned) [Example 697, 3-(4-((Cyclopropylmethyl)(tetrahydro-2H-pyran-4-yl)amino)-3-(3-(5-methylisoxazol-3-yl)ureido)phenyl)pentanoic acid] | > 50
COCC(CC(=O)O)c1ccc(N(CC(C)C)C2CCCCC2)c(NC(=O)Nc2ccc(C)cc2)c1 (racemic) [Example 988, (+/−)-3-(4-(Cyclohexyl(isobutyl)amino)-3-(3-(p-tolyl)ureido)phenyl)-4-methoxybutanoic acid] | < 5
CC(CC(=O)O)c1ccc(N(CC(C)(C)O)C2CCOCC2)c(Nc2ccc(C#N)cc2)c1 (single isomer, unassigned) [Example 196, 3-(3-((4-Cyanophenyl)amino)-4-((2-hydroxy-2-methylpropyl)(tetrahydro-2H-pyran-4-yl)amino)phenyl)butanoic acid] | < 5
CC(C)CN(c1ccc(C(C)CC(=O)O)cc1Nc1nc2ccccc2o1)C1CCOCC1 (single isomer, unassigned) [Example 968, 3-(3-(Benzo[d]oxazol-2-ylamino)-4-(isobutyl(tetrahydro-2H-pyran-4-yl)amino)phenyl)butanoic acid] | < 50
CC[C@@H](CC(=O)O)c1ccc(N(CC(C)(C)O)C2CCOCC2)c(Nc2ccc3c(c2)OC(F)(F)O3)c1 (single isomer, unassigned) [Example 199] | < 5
CCCN(c1ccc([C@@H](COC)CC(=O)O)cc1Nc1cnc(OCC2CC2)nc1)C1CCOCC1 (single isomer, unassigned) [Example 563] | < 50
Cc1ccc(NC(=O)Nc2cc(C(CC(=O)O)C3CC3)ccc2N(CC(C)C)C2CCOCC2)cc1 (single isomer, unassigned) [1202 E2] | < 5
CCOc1ccc(NC(=O)Nc2cc(C(C)(C)CC(=O)O)ccc2N(CC)C2CCOCC2)cc1 [Example 166, 3-(3-(3-(4-Ethoxyphenyl)ureido)-4-(ethyl(tetrahydro-2H-pyran-4-yl)amino)phenyl)-3-methylbutanoic acid] | > 50
CC[C@H](CC(=O)O)c1ccc(N(CC)C2CCOCC2)c(NC(=O)Nc2ccc(Cl)nc2)c1 (single isomer, unassigned) [Example 532] | < 50
COCC(CC(=O)O)c1ccc(N(CC2CC2)C2CCOCC2)c(NC(=O)Nc2ccc(Cl)cc2F)c1 (single isomer, unassigned) [Example 678, 3-(3-(3-(4-Chloro-2-fluorophenyl)ureido)-4-((cyclopropylmethyl)(tetrahydro-2H-pyran-4-yl)amino)phenyl)-4-methoxybutanoic acid] | > 50
COC(Cc1ccc(N(CC(C)C)C2CCCCC2)c(NC(=O)Nc2ccc(Cl)cc2F)c1)C(=O)O (stereo not shown) [Example 1012, 3-(3-(3-(4-Chloro-2-fluorophenyl)ureido)-4-(cyclohexyl(isobutyl)amino)phenyl)-2-methoxypropanoic acid] | < 50
CCN(c1ccc(C(C)CC(=O)O)cc1NC(=O)Nc1ccc(C)cc1)C1CCOCC1 (single isomer, unassigned) [Example 639, 3-(4-(ethyl(tetrahydro-2H-pyran-4-yl)amino)-3-(3-(p-tolyl)ureido)phenyl)butanoic acid] | < 50
CC[C@H](CC(=O)O)c1ccc(N2CCOC[C@@H]2C(C)C)c(NC(=O)Nc2cc(C)on2)c1 (single isomer, unassigned) [Example 88] | > 50
CCN(c1ccc(C(C)(C)CC(=O)O)cc1Nc1ccc(Cl)cc1)C1CCC(C)(O)CC1 (stereo not shown) [Example 1, 3-(3-((4-Chlorophenyl)amino)-4-(ethyl(4-hydroxy-4-methylcyclohexyl)amino)phenyl)-3-methylbutanoic acid] | < 5
CCCN(c1ccc([C@@H](COC)CC(=O)O)cc1Nc1ccc2c(c1)OC(F)(F)O2)C1CCOCC1 (single isomer, unassigned) [Example 561] | > 50
CC[C@H](CC(=O)O)c1ccc(N2CCC[C@H]2C(C)(C)O)c(NC(=O)Nc2ccc(C)cc2)c1 (single isomer, unassigned) [Example 767] | > 50

Next, values leading:

IC50 [nM] | SMILES
< 5 | CCCOc1ncc(Nc2cc(C(CC)CC(=O)O)ccc2N(CC(C)C)C2CCCCC2)cn1 (single isomer, unassigned) [Example 647, 3-(4-(cyclohexyl(isobutyl)amino)-3-((2-propoxypyrimidin-5-yl)amino)phenyl)pentanoic acid]
< 5 | CCC(CC(=O)O)c1ccc(N(CC(C)C)C2CCCCC2)c(Nc2ccc(F)cc2)c1 (single isomer, unassigned) [Example 311, 3-(4-(cyclohexyl(isobutyl)amino)-3-((4-fluorophenyl)amino)phenyl)pentanoic acid]
< 5 | CCOc1ccc(NC(=O)Nc2cc(C(CC)CC(=O)O)c(F)cc2N(CC(C)C)CC(C)C)c(F)c1 (single isomer, unassigned) [Example 1138, 3-(4-(Diisobutylamino)-5-(3-(4-ethoxy-2-fluorophenyl)ureido)-2-fluorophenyl)pentanoic acid]
< 50 | CCC(CC(=O)O)c1ccc(N2C[C@@H](C)O[C@@H](C)C2)c(Nc2ccc3c(c2)OC(F)(F)O3)c1 (single isomer, unassigned) [Example 765]
< 5 | CCC(CC(=O)O)c1cc(F)c(N(CC(C)C)CC(C)C)c(Nc2ccc(C#N)cc2)c1 (single isomer, unassigned) [Example 107, 3-(3-((4-cyanophenyl)amino)-4-(diisobutylamino)-5-fluorophenyl)pentanoic acid]
< 50 | CCOc1ccc(NC(=O)Nc2cc(C(COC)CC(=O)O)ccc2N(CC(C)C)C2CCCCC2)cc1 (single isomer, unassigned) [Example 1231, 3-(4-(Cyclohexyl(isobutyl)amino)-3-(3-(4-ethoxyphenyl)ureido)phenyl)-4-methoxybutanoic acid]
< 5 | CCC(CC(=O)O)c1ccc(N(CC2CC2)C(C)C)c(Nc2ccc(Cl)cc2)c1 (single isomer, unassigned) [Example 714, 3-(3-((4-chlorophenyl)amino)-4-((cyclopropylmethyl) (isopropyl)amino)phenyl) pentanoic acid]
< 50 | CCCCc1ccc(NC(=O)Nc2cc(C(CC)CC(=O)O)cc(F)c2N(CC(C)C)CC(C)C)cc1 (racemic) [Example 973, (+/−)-3-(3-(3-(4-butylphenyl)ureido)-4-(diisobutylamino)-5-fluorophenyl)pentanoic acid]
> 50 | CCOc1ccc(C(=O)Nc2cc(C(CC)CC(=O)O)ccc2N(CC(C)C)C2CCCCC2)cc1 (racemic) [Example 1073, 3-(4-(Cyclohexyl(isobutyl)amino)-3-(4-ethoxybenzamido)phenyl)pentanoic acid]
> 50 | COCC(CC(=O)O)c1cc(F)c(N(CC(C)C)C2CCCCC2)c(NC(=O)Cc2cc(C)on2)c1 (single isomer, unassigned) [Example 1169, 3-(4-(cyclohexyl(isobutyl)amino)-3-fluoro-5-(2-(5-methylisoxazol-3-yl)acetamido)phenyl)-4-methoxybutanoic acid]
< 50 | COCC(CC(=O)O)c1cc(F)c(N(CC(C)C)C2CCCCC2)c(NC(=O)Cc2ccc(Cl)cc2F)c1 (single isomer, unassigned) [Example 1172, 3-(3-(2-(4-chloro-2-fluorophenyl)acetamido)-4-(cyclohexyl(isobutyl)amino)-5-fluorophenyl)-4-methoxybutanoic acid]
< 50 | CCC(CC(=O)O)c1cc(F)c(N(CC(C)C)CC(C)C)c(Nc2ccc(OCC3CC3)cc2)c1 (single isomer, unassigned) [Example 106, 3-(3-((4-(cyclopropylmethoxy)phenyl)amino)-4-(diisobutylamino)-5-fluorophenyl)pentanoic acid]
< 50 | CCOc1ncc(Nc2cc(C(CC)CC(=O)O)ccc2N(CC2CC2)C(C)C)cn1 (single isomer, unassigned) [Example 718, 3-(4-((cyclopropylmethyl) (isopropyl)amino)-3-((2-ethoxypyrimidin-5-yl)amino)phenyl)pentanoic acid]
> 50 | CCC(CC(=O)O)c1cc(F)c(N(CC(C)C)CC(C)C)c(Nc2ccc3nc(C)sc3c2)c1 (single isomer, unassigned) [Example 95, 3-(4-(Diisobutylamino)-3-fluoro-5-((2-methylbenzo[d]thiazol-6-yl)amino)phenyl)pentanoic acid]
< 5 | CC[C@H](CC(=O)O)c1ccc(N(CC)C2CCOCC2)c(Nc2cnc(OC)nc2)c1 (single isomer, unassigned) [Example 519]
< 50 | CCCN(CC1CC1)c1ccc(C(CC)CC(=O)O)cc1Nc1cnc(OCC)nc1 (single isomer, unassigned) [Example 657, 3-(4-((cyclopropylmethyl) (propyl)amino)-3-((2-ethoxypyrimidin-5-yl)amino)phenyl)pentanoic acid]
< 50 | COCC(CC(=O)O)c1ccc(N(CC(C)C)CC(C)C)c(NC(=O)Nc2cc(C)on2)c1 (single isomer, unassigned) [999-1]
< 5 | CCC(CC(=O)O)c1cc(F)c(N(CC(C)C)CC(C)C)c(NC(=O)Cc2ccc(F)cc2F)c1 (single isomer, unassigned) [Example 1093 E2]
< 5 | CC[C@@H](CC(=O)O)c1ccc(N(CC)C2CCOCC2)c(Nc2ccc(Cl)cc2)c1 (single isomer, unassigned) [Example 456]
> 50 | CCC(CC(=O)O)c1ccc(N2C[C@@H](C)O[C@@H](C)C2)c(Nc2ccc3c(c2)OC(F)(F)O3)c1 (single isomer, unassigned) [Example 758]
